Results from article PMC6270011, “Design and Synthesis of Arylthiophene-2-Carbaldehydes via Suzuki-Miyaura Reactions and Their Biological Evaluation” (Molecules, 2013).
In brackets after ≈: the same amount, converted by molar mass. Like-named read-outs stand apart in the source and are kept apart here.

Tests used:
[1] = Nitric oxide (NO) scavenging assay; assay type: biochemical
Excerpt: Nitric oxide (NO) is a free radical causing inflammatory disorders and cancer in the human body when sodium nitroprusside decomposes to produce nitric oxide. The antioxidant activity of various thiophene derivatives has been reported in the literature and it has also been observed that compounds with high antioxidant activity served as antitumor agents. The newly synthesized compounds reacted directly with nitric oxide and inhibited nitrite formation in an excellent way.
The reaction mixtures comprising sample solution (2 µL), phosphate buffer (17 µL) and sodium nitroprusside (20 µL) were incubated at 37 °C for 2 h in well plates. Then Griess reagent (20 µL, 0.3% sulphanilic acid in glacial acetic acid + 0.1% naphthylethylenediamine (NED): equal volumes of both solutions mixed just before use) was added to each well plate and the mixture kept at room temperature for 20 min to develop the color. The absorbance was measured at 528 nm by using an ELISA reader. The results were processed using Gen 5 software. All the reactions were performed in triplicate. Positive control (containing known antioxidant) and control (containing all samples) were run in parallel. Negative control was used to calibrate the instrument. The % age antioxidant activity was determined by using the following formula: % antioxidant activity = [(Absorbance of control − absorbance of sample)/(Absorbance of control)] × 100

[2] = test system: Shigella dysenteriae; assay: Antibacterial activity (disc / inhibition zone) against Shigella dysenteriae; settings: read-out: Inhibition zone, S. dysenteriae
[3] = test system: Staphylococcus aureus; assay: Antibacterial activity (disc / inhibition zone) against Staphylococcus aureus; settings: for zone of inhibition at 25 µg/mL / zone of inhibition at 50 µg/mL: read-out: Inhibition zone, S. aureus
[4] = test system: Salmonella typhi; assay: Antibacterial activity (disc / inhibition zone) against Salmonella typhi; settings: Salmonella enterica; for IC50: read-out: IC50 against Salmonella typhi; for zone of inhibition at 25 µg/mL / zone of inhibition at 50 µg/mL: read-out: Inhibition zone, S. typhi
[5] = test system: Pseudomonas aeruginosa; assay: Antibacterial activity (disc / inhibition zone) against Pseudomonas aeruginosa; settings: for zone of inhibition at 25 µg/mL / zone of inhibition at 50 µg/mL: read-out: Inhibition zone, P. aeruginosa
[6] = test system: Bacillus subtilis; assay: Antibacterial activity (disc / inhibition zone) against Bacillus subtilis; settings: read-out: Inhibition zone, B. subtilis
[7] = test system: human red blood cells (erythrocytes); assay type: cell-based; settings: for Haemolytic activity, percentage of lysis (Average ± SD): human erythrocytes, 37 °C, 35 min
Procedure: Three mL of freshly obtained human blood was placed in heparinized tubes to avoid coagulation, gently mixed and poured into a sterile 15 mL Falcon tube and centrifuged for 5 min at 1,000 ×g. The supernatant was discarded and red blood cells were washed three times with chilled (4 °C) sterile isotonic phosphate buffer saline pH 7.4 (5 mL). Erythrocytes (10^8 cells/mL) were maintained for each assay by dilution with phosphate buffer saline. Erythrocytes were counted on a heamacytometer. Twenty µL of each compound was mixed with red blood cells suspension (180 μL) separately. The samples were incubated at 37 °C for 35 min. The samples were placed on ice for 5 min and then agitated at 1,000 ×g for 5 min. Supernatant (100 µL) were taken from each tube and diluted 10 times with chilled (4 °C) phosphate buffered saline. Triton X-100 (0.1% v/v) was taken as a positive control and PBS was negative control and then subjected to the same process. […] The percentage RBSs lyses for each sample was calculated.

[8] = test system: Escherichia coli; assay: Antibacterial activity (disc / inhibition zone) against Escherichia coli; settings: for IC50: read-out: IC50 against Escherichia coli; for zone of inhibition at 25 µg/mL / zone of inhibition at 50 µg/mL: read-out: Inhibition zone, E.coli
[9] = molecular target: urease enzyme (Canavalia ensiformis, UniProt P07374)
Chain of urease enzyme (P07374 whole entry, looked up): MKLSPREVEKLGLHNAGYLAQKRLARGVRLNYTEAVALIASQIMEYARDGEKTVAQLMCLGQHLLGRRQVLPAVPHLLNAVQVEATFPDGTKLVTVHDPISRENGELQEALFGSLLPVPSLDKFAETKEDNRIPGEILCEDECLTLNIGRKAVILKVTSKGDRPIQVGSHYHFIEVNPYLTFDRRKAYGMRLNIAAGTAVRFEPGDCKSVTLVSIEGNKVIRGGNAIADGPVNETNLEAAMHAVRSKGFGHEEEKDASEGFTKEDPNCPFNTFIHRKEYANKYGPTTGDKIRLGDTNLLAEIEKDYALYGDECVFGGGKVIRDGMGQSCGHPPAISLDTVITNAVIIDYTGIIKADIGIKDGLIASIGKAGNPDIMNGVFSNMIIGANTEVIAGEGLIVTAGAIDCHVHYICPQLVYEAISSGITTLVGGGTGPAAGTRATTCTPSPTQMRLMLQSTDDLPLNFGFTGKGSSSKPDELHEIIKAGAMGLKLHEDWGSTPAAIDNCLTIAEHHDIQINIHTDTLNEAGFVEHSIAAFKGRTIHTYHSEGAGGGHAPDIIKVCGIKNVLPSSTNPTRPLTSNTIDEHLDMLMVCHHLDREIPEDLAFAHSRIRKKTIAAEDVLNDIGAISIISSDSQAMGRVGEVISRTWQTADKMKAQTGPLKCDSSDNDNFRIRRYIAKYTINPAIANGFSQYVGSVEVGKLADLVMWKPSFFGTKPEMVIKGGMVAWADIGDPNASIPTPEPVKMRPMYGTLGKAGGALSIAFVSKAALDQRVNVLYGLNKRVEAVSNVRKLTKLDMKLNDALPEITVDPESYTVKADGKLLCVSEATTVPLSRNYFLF

[10] = 25 µg/mL, read-out: % Activity at 25 µg (NO scavenging)
[11] = 50 µg/mL, read-out: % Activity at 50 µg (NO scavenging)
[12] = 100 µg/mL, read-out: % Activity at 100 µg (NO scavenging)

| SMILES | IC50 (NO scavenging) [1] | inhibition [1, 10] | inhibition [1, 11] | inhibition [1, 12] | zone of inhibition at 25 µg/mL [2] | zone of inhibition at 50 µg/mL [2] | zone of inhibition at 25 µg/mL [3] | zone of inhibition at 50 µg/mL [3] | zone of inhibition at 25 µg/mL [4] | zone of inhibition at 50 µg/mL [4] | zone of inhibition at 25 µg/mL [5] | zone of inhibition at 50 µg/mL [5] | melting point | zone of inhibition at 25 µg/mL [6] | zone of inhibition at 50 µg/mL [6] | Haemolytic activity, percentage of lysis (Average ± SD) [7] | zone of inhibition at 25 µg/mL [8] | zone of inhibition at 50 µg/mL [8] | Haemolytic activity, in words [7] | also measured |
| --- | --- | --- | --- | --- | --- | --- | --- | --- | --- | --- | --- | --- | --- | --- | --- | --- | --- | --- | --- | --- |
| Cc1ccc(-c2csc(C=O)c2)s1 [2j, 5-Methyl-2,3-bisthiophene-5-carbaldehyde] | 49.3 µg/mL (≈ 237 µM) | 15 ± 0.021% | 50 ± 0.024% | 65 ± 0.013% | 35 ± 0.2 mm | 65 ± 0.09 mm | 35.2 ± 0.01 mm | 65 ± 0.09 mm | 29 ± 0.1 mm | 63 ± 0.1 mm | 36 ± 0.16 mm | 69 ± 0.16 mm | 218 to 220 °C | 27.1 ± 0.01 mm | 60 ± 0.05 mm | 4.135 ± 0.095% | 26 ± 0.03 mm | 66 ± 0.43 mm |  | IC50 ([3]; read-out: IC50 against Staphylococcus aureus): 37.4 µg/mL (≈ 180 µM); IC50 [4]: 37.4 µg/mL (≈ 180 µM); IC50 [8]: 40 µg/mL (≈ 192 µM) |
| O=Cc1cc(-c2ccc(F)c(Cl)c2)cs1 [2i, 4-(3-Chloro-4-fluorophenyl)thiophene-2-carbaldehyde] | 46.1 µg/mL (≈ 192 µM) | 12 ± 0.05% | 57 ± 0.0021% | 72 ± 0.009% | 43 ± 0.105 mm | 58 ± 0.16 mm | 27.8 ± 0.12 mm | 58 ± 0.16 mm | 33 ± 0.25 mm | 59.5 ± 0.25 mm | 42 ± 0.04 mm | 66 ± 0.01 mm | 108 to 110 °C | 36.5 ± 0.04 mm | 56 ± 0.5 mm | 9.779 ± 0.095% | 16 ± 0.043 mm | 26 ± 0.023 mm | highest haemolytic action |  |
| Cc1ccc(-c2csc(C=O)c2)cc1 [2e, 4-p-Tolylthiophene-2-carbaldehyde] |  | -15 ± 0.04% | -12 ± 0.037% | 3 ± 0.0014% | 41 ± 0.05 mm | 58 ± 0.01 mm | 28 ± 0.2 mm | 58 ± 0.01 mm | 22.2 ± 0.14 mm | 53 ± 0.12 mm | 44 ± 0.02 mm | 60 ± 0.03 mm | 58 to 60 °C | 22.4 ± 0.13 mm | 54 ± 0.17 mm | 3.356 ± 0.075% | 32 ± 0.05 mm | 62 ± 0.01 mm | lowest haemolytic property | IC50 [8]: 40 µg/mL (≈ 198 µM) |
| COc1ccc(-c2csc(C=O)c2)cc1 [2f, 4-(4-Methoxyphenyl)thiophene-2-carbaldehyde] |  | 5 ± 0.005% | 10 ± 0.028% | 25 ± 0.005% | 42 ± 0.7 mm | 61.4 ± 0.56 mm | 34 ± 0.05 mm | 61.4 ± 0.56 mm | 36 ± 0.01 mm | 63 ± 0.11 mm | 34 ± 0.04 mm | 64 ± 0.04 mm | 68 to 70 °C | 24.4 ± 0.03 mm | 54 ± 0.23 mm | 6.083 ± 0.143% | 9 ± 0.03 mm | 8 ± 0.01 mm | highest haemolytic action | IC50 [4]: 37.9 µg/mL (≈ 174 µM) |
| O=Cc1cc(-c2ccccc2)cs1 [2a, 4-Phenylthiophene-2-carbaldehyde] | 92.5 µg/mL (≈ 491 µM) | 12 ± 0.037% | 33 ± 0.0035% | 48 ± 0.049% |  | 63 ± 0.18 mm |  | 63 ± 0.18 mm |  | 61 ± 0.13 mm |  | 67.6 ± 0.001 mm | 57 to 59 °C |  | 61 ± 0.14 mm | 3.947 ± 0.078% |  | 47 ± 0.15 mm |  |  |
| NC(N)=S [Thiourea, thiourea, reference compound] |  |  |  |  |  |  |  |  |  |  |  |  |  |  |  |  |  |  |  | IC50 (urease inhibition) [9]: 27.5 µg/mL (≈ 361 µM); %age Activity at 25 μg (urease inhibition) ([9]; 25 µg/mL): 47 ± 0.007%; %age Activity at 50 μg (urease inhibition) ([9]; 50 µg/mL): 77 ± 0.015% |
| N#Cc1cc(-c2csc(C=O)c2)cc(C(F)(F)F)c1 [2d, 3-(5-Formylthiophene-3-yl)-5-(trifloromethyl)benzonitrile] | 45.6 µg/mL (≈ 162 µM) | 12 ± 0.025% | 58 ± 0.01% | 73 ± 0.0028% | 35 ± 0.15 mm | 63 ± 0.31 mm | 33 ± 0.01 mm | 63 ± 0.31 mm | 30 ± 0.15 mm | 64 ± 0.05 mm | 46 ± 0.02 mm | 67 ± 0.01 mm | 252 to 254 °C | 28.3 ± 0.75 mm | 58 ± 0.35 mm | 3.306 ± 0.058% | 32.5 ± 0.12 mm | 40.5 ± 0.19 mm | lowest haemolytic property | IC50 ([5]; read-out: IC50 against Pseudomonas aeruginosa): 29.7 µg/mL (≈ 106 µM) |
| O=Cc1cc(-c2cc(C(F)(F)F)cc(C(F)(F)F)c2)cs1 [2b, 4-(3,5-Bis(trifloromethyl)phenyl)thiophene-2-carbaldehyde] | 66.6 µg/mL (≈ 205 µM) | 10 ± 0.02% | 45 ± 0.001% | 60 ± 0.021% | 33 ± 0.05 mm | 62.4 ± 0.1 mm | 36.6 ± 0.4 mm | 62.4 ± 0.1 mm | 33 ± 0.2 mm | 63 ± 0.25 mm | 42 ± 0.02 mm | 67 ± 0.01 mm | 95 to 97 °C | 23 ± 0.09 mm | 59 ± 0.1 mm | 5.003 ± 0.078% | 18 ± 0.13 mm |  |  |  |
